Measured values: publication PMC9774128, “New Insights into the Mechanism of Antibacterial Action of Synthetic Peptide Mo-CBP3-PepI against Klebsiella pneumoniae” (Antibiotics, 2022)

Experiments:
K. pneumoniae biofilm = assay: Antibiofilm assay: inhibition of biofilm formation, crystal violet; assay type: cell-based, Klebsiella pneumoniae; settings: peptide 31.25 μg mL^−1; 48 h, 37 °C; crystal violet O.D. 600 nm; triplicate, three independent experiments
Experimental: The antibiofilm assay was conducted in flat-bottom 96-well polystyrene microplates as described by Neto et al.. A single colony of K. pneumoniae was collected in stock Petri plates containing inoculated Mueller–Hinton agar. The colony was used as inoculum for 5 mL of Mueller–Hinton broth, and the media was incubated for 24 h in the dark at 37 °C. In sequence, the O.D. of the cell suspension was measured using a microplate reader (Epoch, BioTek) and adjusted to 0.1 at 630 nm with Mueller–Hinton broth. For the inhibition of biofilm formation, 50 µL of the cell ([…]) suspension was incubated with 50 µL of the peptide (31.25 μg mL^−1) solution and 50 µL of the respective controls described above. The incubation lasted for 48 h at 37 °C. For the biofilm degradation assay, 50 µL of the cell suspension was incubated for 24 h at 37 °C. After this, 50 µL of the peptide solution and the respective controls were added to the wells containing the preformed biofilm and incubated for 24 h at 37 °C.
After incubation, both wells of biofilm formation inhibition and biofilm degradation were washed once with a sterile saline solution. Then, the wells were fixated with 100 µL methanol 99% for 15 min. […] Then, the crystals stained on the biofilm were diluted with 200 µL of 33% acetic acid, and the O.D was measured using a wavelength of 600 nm. […]

[1] = tested on: K. pneumoniae cell membrane; assay: Cell membrane integrity by propidium iodide uptake; assay type: cell-based, Klebsiella pneumoniae; settings: peptide 31.25 µg mL^−1, 24 h
Experimental: The assay was conducted as described by Oliveira et al., with some modifications. Preparation of cell suspension was completed as mentioned above. After, 50 µL of the diluted bacteria solution was incubated in the dark for 24 h, at 37 °C, with 50 µL of the peptide solution (31.25 µg mL^−1) previously prepared with 5% of dimethyl sulfoxide (DMSO) diluted in 0.15 M NaCl solution. The assay was conducted in 1.5 mL microtubes. The diluted bacteria solution was incubated only with the DMSO-NaCl solution for control. After incubation, the microtubes were centrifuged (5000× g, 5 min, 4 °C) and washed three times. Next, the washed cells were incubated with 1 µM propidium iodide for 30 min, in the dark, at 37 °C. After this, the cells were washed two times with saline solution to remove the excess fluorophore and observed with a fluorescence microscope (Olympus System BX 60; excitation wavelength, 488 nm; emission wavelength, […]).

C. albicans cells = settings: cited from earlier work
Description: To answer the second question, it is necessary to understand an essential characteristic of antimicrobial peptides, self-association. Self-association is the ability of antimicrobial peptides to interact during the insertion into the membrane, allowing the formation of a huge pore. […] In this model, a peptide interacts with lipids in the membrane, as described above, to perform the insertion into the membrane. Then, the peptide molecules interact between them to form a huge por ...

For CPAIQRCC [Mo-CBP3-PepI], the “Inhibition of Biofilm Formation (%)” value (K. pneumoniae biofilm) was 11.87 ± 0.001%, the “pore size indicated by movement of PI” value [1] was 692.50 Da and the “membrane pore formation (PI uptake)” value ([1]; 37 °C, 1 µM PI 30 min, fluorescence microscopy) was “induced the pore formation”. The pore size (C. albicans cells) was 10 kDa.
